Laboratory results from paper PMC9090282, “Characterization of Calcium-Dependent Protein Kinase 2A, a Potential Drug Target Against Cryptosporidiosis” (Frontiers in Microbiology, 2022).
pEC50, pIC50: −log10 of the molar value.

Legend:
Cryptosporidium parvum [1] = assay: Anti-cryptosporidial activity on C. parvum development in HCT-8 cultures by qRT-PCR (compound present during invasion and growth, 44 h); format: cell-based
Procedure: (§1) Using molecular docking of the simulated CpCDPK2A structure, small molecules were selected from the ChemDiv database. The binding energy values of ligands to proteins were calculated based on ligand efficiency, Coulomb energy, Van der waals energy, and H-bond energy. Candidate small molecules were purchased from TopScience Ltd. (Shanghai, China) and screened for activities against C. parvum development in vitro using qRT-PCR ([Zhang et al., 2012]). Briefly, HCT-8 monolayers (2 × 10^4 cells/well) grown in 96 well plates were inoculated with hypochlorite-treated oocysts (2 × 10^4 oocysts/well) containing dilutions of compounds (10 μM) or DMSO (1%). The parasites were allowed to invade host cells for 3 h, and uninvaded parasites were washed off with the medium change. […] The levels of 18S rRNA transcripts of C. parvum and HCT-8 cells were measured by using the HiScript II One Step qRT-PCR SYBR Green kit (Vazyme Biotech, Nanjing, China) as described ([Zhang et al., 2012]). The parasite loads in cultures were calculated using the ΔΔCT method ([Cai et al., 2005]). […] The cytotoxicity of compounds was evaluated by the Cell Titer 96 Aqueous One Solution Cell Proliferation Assay (Promega) as described ([Pobsuk et al., 2019]). The half-maximal toxic concentration (TC50) values on host cells were calculated using Graphpad Prism 7 (Graphpad software, San Diego, United States).

HCT-8 cells = assay: Cytotoxicity, Cell Titer 96 Aqueous One Solution Cell Proliferation Assay; format: cell-based, human
Procedure: as §1

rCpCDPK2A = rCpCDPK2A (Cryptosporidium parvum, UniProt Q5CTY5); assay: NADH-coupled ATPase assay of rCpCDPK2A enzyme activity; format: biochemical
Procedure: The enzymatic activity of rCpCDPK2A was measured using the […] NADH-coupled ATPase assay as described previously ([Rutaganira et al., 2017]). The kinase reaction was conducted at 30°C for 40 min in 100 mM HEPES, pH 8.0, 150 mM NaCl, 10 mM MgCl2, 1 mM CaCl2, 50 mM KCl, 10 mM DTT, 2 μg/ml BSA, and 0.01% Tween 20. The typical assay of 100 μl reactions contained 50 μM Syntide-2, 50 μM ATP, 150 μM NADH, 300 μM phosphoenolpyruvate (PEP), and a mixture of pyruvate kinase (4 units/ml) and lactate dehydrogenase (6 units/ml; Sigma). The reaction was initiated with the addition of 100 nM rCpCDPK2A. A recombinant insulinase-like protease of C. parvum, INS-16, was used as the negative control. To assess the inhibitory effect on enzymatic activities of rCpCDPK2A, six active compounds were added to the reaction at 10 μM in duplicate. Compounds with significant inhibition rates were selected to determine the half-maximal inhibition concentration (IC50) using final concentrations of 1 μM to 20 μM. The IC50 values were calculated using Graphpad Prism 7.

Cryptosporidium parvum [2] = assay: Invasion experiment: HCT-8 cells infected with oocysts and cultured with compound for 3 h, qRT-PCR; format: cell-based; conditions: 0.01 to 20 μM, compound only during invasion phase (3 h)
Procedure: (§2) Candidate anti-cryptosporidial compounds were further examined for their effects on C. parvum invasion or development assays. In invasion experiments, HCT-8 cells plated on coverslips were infected with bleached oocysts and cultured with active compounds for 3 h at 37°C. In growth experiments, monolayers were infected with bleached oocysts, washed twice with PBS at 3 h post-infection, and returned to culture in fresh HCT-8 medium with active compounds for 41 h. RNA was collected from each well at specified time point to assess the anti-cryptosporidial activities of these compounds using qRT-PCR method described above. The addition of 140 μM paromomycin was used as a positive control. Parasite enumeration by immunofluorescence microscopy was used to verify the efficacy of active compound K292-0423 against C. parvum development in vitro.

Cryptosporidium parvum [3] = assay: Growth experiment: compound added at 3 h post-infection for 41 h, qRT-PCR; format: cell-based; conditions: read-out: EC50 on parasite loads, compound added after invasion
Procedure: as §2

Cryptosporidium parvum [4] = assay: Parasite enumeration by immunofluorescence microscopy in treated HCT-8 cultures; format: cell-based; conditions: 10 μM; positive control paromomycin 140 μM
Procedure: as §2

rCpCDPK2A, sequence (Q5CTY5 entry or part of it): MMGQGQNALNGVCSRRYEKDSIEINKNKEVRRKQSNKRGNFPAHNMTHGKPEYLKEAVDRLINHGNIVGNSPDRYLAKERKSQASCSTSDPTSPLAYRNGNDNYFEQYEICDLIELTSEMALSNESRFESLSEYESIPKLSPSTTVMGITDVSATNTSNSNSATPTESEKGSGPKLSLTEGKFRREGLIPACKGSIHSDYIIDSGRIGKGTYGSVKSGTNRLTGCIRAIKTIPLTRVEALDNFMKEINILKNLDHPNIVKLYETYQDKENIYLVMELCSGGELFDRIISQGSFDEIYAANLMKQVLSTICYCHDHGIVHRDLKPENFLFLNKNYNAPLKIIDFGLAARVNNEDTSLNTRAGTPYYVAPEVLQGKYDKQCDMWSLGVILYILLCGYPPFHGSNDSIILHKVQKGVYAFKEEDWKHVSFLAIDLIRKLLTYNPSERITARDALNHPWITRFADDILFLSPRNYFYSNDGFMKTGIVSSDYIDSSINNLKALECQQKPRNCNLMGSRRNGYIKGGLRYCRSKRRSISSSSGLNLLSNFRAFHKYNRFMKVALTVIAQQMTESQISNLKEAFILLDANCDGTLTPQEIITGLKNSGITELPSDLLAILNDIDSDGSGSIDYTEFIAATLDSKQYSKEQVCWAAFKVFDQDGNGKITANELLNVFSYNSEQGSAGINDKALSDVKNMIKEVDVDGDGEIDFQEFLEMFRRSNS

`O=C(CSc1nc2ccsc2c(=O)n1-c1ccc(Cl)cc1)NCc1ccco1` [K292-0423] was tested, and the inhibition at 10 µM (Cryptosporidium parvum [1]; 10 μM, read-out: Inhibition of parasite growth in primary screening) was over 60%, the pEC50 (Cryptosporidium parvum [1]; dilutions 10 nM to 20 μM, read-out: EC50 (half-maximal effective concentration) on C. parvum growth) was 5.95 and the “TC50 (half-maximal toxic concentration)” value (HCT-8 cells) was over 75 µM. For the same compound, the inhibition at 10 µM (rCpCDPK2A; 10 μM compound, read-out: Inhibition rate of rCpCDPK2A activity) was 73.1%, the pIC50 (rCpCDPK2A; concentrations 1 μM to 20 μM, read-out: IC50 on CpCDPK2A enzyme) was 5.07 and the “Inhibition rates of invasion of HCT-8 cells by C. parvum” value (Cryptosporidium parvum [2]) was −24.27 to 37.66%. The pEC50 (Cryptosporidium parvum [3]) was 5.50 and the “Inhibitory effect by direct enumeration of parasites” value (Cryptosporidium parvum [4]) was “inhibitory effects similar to that by the positive control paromomycin”.
